Tested on: MPNST complex spheroid with HUVEC/MSC, growth, % test/control
Assay: Anticancer human tumor MPNST cell line growth inhibition [Asc];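 further: compounds left on spheroids for seven days before reading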
Conditions: for IC50: curve of first compound; for viability, T/C: stronger effect = lower value
Method in brief: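 Complex solid-tumor spheroids incorporating human endothelial and mesenchymal stem cells received single agents or combinations over half-log dilution ranges anchored to clinical Cmax.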

NC(=O)C(=Cn1cnc(-c2cc(C(F)(F)F)cc(C(F)(F)F)c2)n1)c1cncnc1 + CNC(C)C(=O)NC1CN(S(=O)(=O)c2cccc(S(=O)(=O)N3CCC4CCC(C(=O)NC(c5ccccc5)c5ccccc5)N4C(=O)C(NC(=O)C(C)NC)C3)c2)CCC2CCC(C(=O)NC(c3ccccc3)c3ccccc3)N2C1=O
IC50 (second compound 0.00316 µM): 11.6 nM | IC50 (second compound 0.01 µM): 54.6 nM | IC50 (second compound 0.0316 µM): 163 nM | IC50 (second compound 0.1 µM): 52.7 nM | IC50 (second compound 0.316 µM): 18.1 nM | IC50 (second compound 1 µM): 69.8 nM | viability, T/C (second compound 0.00316 µM, first compound 0.000949 µM): 68.7% | viability, T/C (second compound 0.00316 µM, first compound 0.003 µM): 65% | viability, T/C (second compound 0.00316 µM, first compound 0.00949 µM): 49.3% | viability, T/C (second compound 0.00316 µM, first compound 0.03 µM): 43.9% | viability, T/C (second compound 0.00316 µM, first compound 0.0949 µM): 28% | viability, T/C (second compound 0.00316 µM, first compound 0.3 µM): 30.8% | viability, T/C (second compound 0.01 µM, first compound 0.000949 µM): 78.4% | viability, T/C (second compound 0.01 µM, first compound 0.003 µM): 73% | viability, T/C (second compound 0.01 µM, first compound 0.00949 µM): 84.1% | viability, T/C (second compound 0.01 µM, first compound 0.03 µM): 66.3% | viability, T/C (second compound 0.01 µM, first compound 0.0949 µM): 34.6% | viability, T/C (second compound 0.01 µM, first compound 0.3 µM): 35.3% | viability, T/C (second compound 0.0316 µM, first compound 0.000949 µM): 58.5% | viability, T/C (second compound 0.0316 µM, first compound 0.003 µM): 72% | viability, T/C (second compound 0.0316 µM, first compound 0.00949 µM): 70.5% | viability, T/C (second compound 0.0316 µM, first compound 0.03 µM): 82.1% | viability, T/C (second compound 0.0316 µM, first compound 0.0949 µM): 59.2% | viability, T/C (second compound 0.0316 µM, first compound 0.3 µM): 34.9% | viability, T/C (second compound 0.1 µM, first compound 0.000949 µM): 101% | viability, T/C (second compound 0.1 µM, first compound 0.003 µM): 80.7% | viability, T/C (second compound 0.1 µM, first compound 0.00949 µM): 103% | viability, T/C (second compound 0.1 µM, first compound 0.03 µM): 62.3% | viability, T/C (second compound 0.1 µM, first compound 0.0949 µM): 37.5% | viability, T/C (second compound 0.1 µM, first compound 0.3 µM): 36.9% | viability, T/C (second compound 0.316 µM, first compound 0.000949 µM): 72.6% | viability, T/C (second compound 0.316 µM, first compound 0.003 µM): 49.9% | viability, T/C (second compound 0.316 µM, first compound 0.00949 µM): 60.5% | viability, T/C (second compound 0.316 µM, first compound 0.03 µM): 46% | viability, T/C (second compound 0.316 µM, first compound 0.0949 µM): 43.7% | viability, T/C (second compound 0.316 µM, first compound 0.3 µM): 34.4% | viability, T/C (second compound 1 µM, first compound 0.000949 µM): 63.2% | viability, T/C (second compound 1 µM, first compound 0.003 µM): 59% | viability, T/C (second compound 1 µM, first compound 0.00949 µM): 66.2% | viability, T/C (second compound 1 µM, first compound 0.03 µM): 55.6% | viability, T/C (second compound 1 µM, first compound 0.0949 µM): 47.8% | viability, T/C (second compound 1 µM, first compound 0.3 µM): 36%

NC1CCC(NC2CC2c2ccccc2)CC1 (centres undefined) + CNC(C)C(=O)NC1CN(S(=O)(=O)c2cccc(S(=O)(=O)N3CCC4CCC(C(=O)NC(c5ccccc5)c5ccccc5)N4C(=O)C(NC(=O)C(C)NC)C3)c2)CCC2CCC(C(=O)NC(c3ccccc3)c3ccccc3)N2C1=O
IC50 (second compound 0.00316 µM): > 100 nM | IC50 (second compound 0.01 µM): 83.9 nM | IC50 (second compound 0.0316 µM): > 100 nM | IC50 (second compound 0.1 µM): > 100 nM | IC50 (second compound 0.316 µM): 95.3 nM | IC50 (second compound 1 µM): > 100 nM | viability, T/C (second compound 0.00316 µM, first compound 0.000316 µM): 65.4% | viability, T/C (second compound 0.00316 µM, first compound 0.001 µM): 91.4% | viability, T/C (second compound 0.00316 µM, first compound 0.00316 µM): 51.1% | viability, T/C (second compound 0.00316 µM, first compound 0.01 µM): 99.5% | viability, T/C (second compound 0.00316 µM, first compound 0.0316 µM): 55% | viability, T/C (second compound 0.00316 µM, first compound 0.1 µM): 52.7% | viability, T/C (second compound 0.01 µM, first compound 0.000316 µM): 72.2% | viability, T/C (second compound 0.01 µM, first compound 0.001 µM): 74.9% | viability, T/C (second compound 0.01 µM, first compound 0.00316 µM): 79.5% | viability, T/C (second compound 0.01 µM, first compound 0.01 µM): 84.7% | viability, T/C (second compound 0.01 µM, first compound 0.0316 µM): 62.6% | viability, T/C (second compound 0.01 µM, first compound 0.1 µM): 47.7% | viability, T/C (second compound 0.0316 µM, first compound 0.000316 µM): 88.5% | viability, T/C (second compound 0.0316 µM, first compound 0.001 µM): 63.8% | viability, T/C (second compound 0.0316 µM, first compound 0.00316 µM): 70.4% | viability, T/C (second compound 0.0316 µM, first compound 0.01 µM): 81.8% | viability, T/C (second compound 0.0316 µM, first compound 0.0316 µM): 61.8% | viability, T/C (second compound 0.0316 µM, first compound 0.1 µM): 61.6% | viability, T/C (second compound 0.1 µM, first compound 0.000316 µM): 94.8% | viability, T/C (second compound 0.1 µM, first compound 0.001 µM): 79.1% | viability, T/C (second compound 0.1 µM, first compound 0.00316 µM): 87.3% | viability, T/C (second compound 0.1 µM, first compound 0.01 µM): 61.1% | viability, T/C (second compound 0.1 µM, first compound 0.0316 µM): 69.5% | viability, T/C (second compound 0.1 µM, first compound 0.1 µM): 54.3% | viability, T/C (second compound 0.316 µM, first compound 0.000316 µM): 83.3% | viability, T/C (second compound 0.316 µM, first compound 0.001 µM): 77.2% | viability, T/C (second compound 0.316 µM, first compound 0.00316 µM): 69.3% | viability, T/C (second compound 0.316 µM, first compound 0.01 µM): 99.6% | viability, T/C (second compound 0.316 µM, first compound 0.0316 µM): 79.6% | viability, T/C (second compound 0.316 µM, first compound 0.1 µM): 48.7% | viability, T/C (second compound 1 µM, first compound 0.000316 µM): 92.9% | viability, T/C (second compound 1 µM, first compound 0.001 µM): 59.2% | viability, T/C (second compound 1 µM, first compound 0.00316 µM): 69.1% | viability, T/C (second compound 1 µM, first compound 0.01 µM): 63.3% | viability, T/C (second compound 1 µM, first compound 0.0316 µM): 85.2% | viability, T/C (second compound 1 µM, first compound 0.1 µM): 55.7%
